How the values were obtained:
[1] = Metabolism in standard in vitro assays; format: in vitro ADME
[2] = test system: Japanese type 2 diabetic subjects; experiment: Phase 2b dose-ranging placebo-controlled 24-week study in Japanese type 2 diabetic subjects; format: in vivo, human; details: for FPG LSM difference vs baseline / FPG LSM difference vs placebo: 24 weeks, FAS; for responder rate (subjects reaching HbA1c≤7%): end of 24-week treatment (placebo 8.2%)
Experimental: A Dose-Ranging, Randomized, Double-Blind, Placebo-Controlled, Parallel-Group, Multi-Center Study of the Efficacy and Safety of 3 Doses of Imeglimin after 24 Weeks of Treatment in Japanese Type 2 Diabetic Subjects
In this study, a total of 299 subjects with T2DM received either imeglimin at one of the 3 doses (500, 1000 and 1500 mg bid) or placebo. The primary objective of this study was to assess the dose-response of imeglimin at 3 doses (500, 1000 and 1500 mg bid) compared to placebo in male and female subjects with T2DM after 24 weeks of treatment, using glycosylated hemoglobin (HbA1c) as the primary endpoint. Inclusion Criteria: subjects have an eGFR of ≥50 mL/min/1.73 m^2 at screening and >=45 at pre randomization visit. A total of 299 subjects were randomized 1:1:1:1 to one of the 4 study arms, with 268 subjects completing the study.
Percentage of responders was defined as the percentage of subjects who reached a value of HbA1c≤7% at the end of the 24-week double-blind treatment period. The analysis was performed using the FAS for subjects with an HbA1c value greater than 7.0% at baseline.
In a post-hoc analysis, efficacy and safety/tolerability profile was investigated in patients depending on their renal function (CKD 1=eGFR≥90 mL/min/1.73 m^2, CKD2=60≤eGFR<90 mL/min/1.73 m^2, CKD3A=45≤eGFR<60 mL/min/1.73 m^2). 299 patients were randomized 74% of the patients had CKD2, 14% had CKD1, and 12% CKD3A, respectively. The primary endpoint was met with a statistically significant dose-dependent placebo subtracted decrease in HbA1c at the 3 doses with the 2 top doses of 1,000 and 1,500 mg bid reaching an HbA1c decrease of −0.94% and −1.00% respectively (Table 5). […] There were no major differences in the incidence of AE, SAE or AE leading to treatment discontinuation.

[3] = CKD Stage 2 (eGFR = 60-90 mL/min/1.73 m^2), 500 mg BID
[4] = CKD Stage 2 (eGFR = 60-90 mL/min/1.73 m^2), 500 mg BID, N 56
[5] = CKD Stage 2 (eGFR = 60-90 mL/min/1.73 m^2), 1000 mg BID
[6] = CKD Stage 2 (eGFR = 60-90 mL/min/1.73 m^2), 1000 mg BID, N 57
[7] = CKD Stage 2 (eGFR = 60-90 mL/min/1.73 m^2), 1500 mg BID
[8] = CKD Stage 2 (eGFR = 60-90 mL/min/1.73 m^2), 1500 mg BID, N 51
[9] = CKD Stage 3a (eGFR < 60 mL/min/1.73 m^2), 500 mg BID
[10] = CKD Stage 3a (eGFR < 60 mL/min/1.73 m^2), 500 mg BID, N 10
[11] = CKD Stage 3a (eGFR < 60 mL/min/1.73 m^2), 1000 mg BID
[12] = CKD Stage 3a (eGFR < 60 mL/min/1.73 m^2), 1000 mg BID, N 7
[13] = CKD Stage 3a (eGFR < 60 mL/min/1.73 m^2), 1500 mg BID

## C[C@H]1N=C(N(C)C)N=C(N)N1 [imeglimin, (6R)—N^2, N^2,6-trimethyl-3,6-dihydro-1,3,5-triazine-2,4-diamine]
[1]
  metabolism: no appreciable metabolism
[2]; 500 mg (placebo 13.3%)
  TEAE leading to discontinuation: 2.7%
[2]; 500 mg bid
  FPG LSM difference vs baseline: 8.0 mg/dL
  FPG LSM difference vs placebo: -8.6 mg/dL
[2]; 500 mg bid, baseline HbA1c <8%
  placebo-adjusted change in HbA1c: −0.47%
[2]; 500 mg bid, baseline HbA1c ≥8%
  placebo-adjusted change in HbA1c: −0.58%
[2]; 1000 mg (placebo 13.3%)
  TEAE leading to discontinuation: 6.8%
[2]; 1000 mg bid
  FPG LSM difference vs baseline: -8.0 mg/dL
  FPG LSM difference vs placebo: -24.6 mg/dL
  responder rate (subjects reaching HbA1c≤7%): 33.3%
[2]; 1000 mg bid, baseline HbA1c <8%
  placebo-adjusted change in HbA1c: −0.93%
[2]; 1000 mg bid, baseline HbA1c ≥8%
  placebo-adjusted change in HbA1c: −0.90%
[2]; 1500 mg (placebo 13.3%)
  TEAE leading to discontinuation: 6.7%
[2]; 1500 mg bid (placebo 10.7%)
  subjects requiring a rescue therapy due to poor glycemic control: no subjects requiring rescue therapy
[2]; 1500 mg bid
  FPG LSM difference vs baseline: -8.0 mg/dL
  FPG LSM difference vs placebo: -24.6 mg/dL
  responder rate (subjects reaching HbA1c≤7%): 32.9%
[2]; 1500 mg bid, baseline HbA1c <8%
  placebo-adjusted change in HbA1c: −0.82%
[2]; 1500 mg bid, baseline HbA1c ≥8%
  placebo-adjusted change in HbA1c: −1.2%
[2]; 2 top doses of 1000 and 1500 mg bid
  Decrease in FPG (placebo-adjusted): 1.37 mmol/L
[2]; CKD3a subgroup, post-hoc analysis
  SAE or AE leading to discontinuation: No SAE or AE leading to discontinuation were observed
[2]; [3]
  FPG LSM Difference vs. Placebo, Week 24: -14.2 mg/dL
  HbA1c LSM Difference vs. Placebo (SEM), Week 24: −0.60%
[2]; [4]
  Change in FPG from baseline, Week 24 LS Mean: 5.8 mg/dL
  Change in HbA1c from baseline, Week 24 LS Mean (SEM): −0.08 (0.109) %
[2]; CKD Stage 2 (eGFR = 60-90 mL/min/1.73 m^2), 500 mg BID, listed as Imeglimin
  HbA1c LSM Difference vs. Placebo (SEM), Week 24: −0.60 (0.154) %
[2]; [5]
  FPG LSM Difference vs. Placebo, Week 24: -26.5 mg/dL
  HbA1c LSM Difference vs. Placebo (SEM), Week 24: −1.03%
[2]; [6]
  Change in FPG from baseline, Week 24 LS Mean: -6.5 mg/dL
  Change in HbA1c from baseline, Week 24 LS Mean (SEM): −0.51 (0.110) %
[2]; CKD Stage 2 (eGFR = 60-90 mL/min/1.73 m^2), 1000 mg BID, listed as Imeglimin
  HbA1c LSM Difference vs. Placebo (SEM), Week 24: −1.03 (0.155) %
[2]; [7]
  FPG LSM Difference vs. Placebo, Week 24: -33.0 mg/dL
  HbA1c LSM Difference vs. Placebo (SEM), Week 24: −1.11%
[2]; [8]
  Change in FPG from baseline, Week 24 LS Mean: -12.9 mg/dL
  Change in HbA1c from baseline, Week 24 LS Mean (SEM): −0.58 (0.117) %
[2]; CKD Stage 2 (eGFR = 60-90 mL/min/1.73 m^2), 1500 mg BID, listed as Imeglimin
  HbA1c LSM Difference vs. Placebo (SEM), Week 24: −1.11 (0.160) %
[2]; [9]
  FPG LSM Difference vs. Placebo, Week 24: -6.7 mg/dL
  HbA1c LSM Difference vs. Placebo (SEM), Week 24: −0.54%
[2]; [10]
  Change in FPG from baseline, Week 24 LS Mean: 1.7 mg/dL
  Change in HbA1c from baseline, Week 24 LS Mean (SEM): −0.32 (0.240) %
[2]; CKD Stage 3a (eGFR < 60 mL/min/1.73 m^2), 500 mg BID, listed as Imeglimin
  HbA1c LSM Difference vs. Placebo (SEM), Week 24: −0.54 (0.336) %
[2]; [11]
  FPG LSM Difference vs. Placebo, Week 24: -11.2 mg/dL
  HbA1c LSM Difference vs. Placebo (SEM), Week 24: −0.44%
[2]; [12]
  Change in FPG from baseline, Week 24 LS Mean: -2.8 mg/dL
  Change in HbA1c from baseline, Week 24 LS Mean (SEM): −0.22 (0.282) %
[2]; CKD Stage 3a (eGFR < 60 mL/min/1.73 m^2), 1000 mg BID, listed as Imeglimin
  HbA1c LSM Difference vs. Placebo (SEM), Week 24: −0.44 (0.368) %
[2]; [13]
  FPG LSM Difference vs. Placebo, Week 24: -20.6 mg/dL
  HbA1c LSM Difference vs. Placebo (SEM), Week 24: −1.07%
[2]; CKD Stage 3a (eGFR < 60 mL/min/1.73 m^2), 1500 mg BID, N 8
  Change in FPG from baseline, Week 24 LS Mean: -12.2 mg/dL
